These results are taken from patent US20260062443A1 (ALEXION PHARMACEUTICALS, INC., priority 2022, published 2026).

In general, IC50 refers to the concentration at which inhibition is half-maximal.

The assay deals with T1, Human complement C1s enzyme (Homo sapiens, UniProt P09871).
T1 sequence (P09871 438-688 limits assumed): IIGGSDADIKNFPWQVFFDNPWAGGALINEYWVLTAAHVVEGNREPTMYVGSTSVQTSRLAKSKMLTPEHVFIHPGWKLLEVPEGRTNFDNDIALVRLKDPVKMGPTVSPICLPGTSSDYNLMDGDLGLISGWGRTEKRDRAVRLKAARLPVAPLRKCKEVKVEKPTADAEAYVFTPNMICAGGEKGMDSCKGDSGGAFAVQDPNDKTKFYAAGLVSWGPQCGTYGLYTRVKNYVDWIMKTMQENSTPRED
T1 sequence (P09871 16-437 partner limits assumed): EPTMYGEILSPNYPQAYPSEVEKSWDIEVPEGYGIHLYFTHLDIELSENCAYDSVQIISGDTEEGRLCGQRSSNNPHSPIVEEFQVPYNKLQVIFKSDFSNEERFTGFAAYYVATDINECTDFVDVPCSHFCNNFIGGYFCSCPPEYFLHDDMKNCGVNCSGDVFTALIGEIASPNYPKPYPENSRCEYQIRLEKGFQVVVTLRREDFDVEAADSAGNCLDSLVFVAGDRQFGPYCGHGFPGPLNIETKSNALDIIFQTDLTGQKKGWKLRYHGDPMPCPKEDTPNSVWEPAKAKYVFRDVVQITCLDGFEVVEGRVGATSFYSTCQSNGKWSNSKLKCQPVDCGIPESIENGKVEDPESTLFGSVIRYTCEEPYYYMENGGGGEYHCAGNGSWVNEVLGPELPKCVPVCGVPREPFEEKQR
Description: Human C1s enzyme assay. The format is biochemical. As to conditions: human complement C1s enzyme 1.16 nM, substrate Z-L-Lys-SBzl 100 μM, 5 min preincubation; read-out: IC50 (Stars), C1s Inhibiting Activity. An outline of the steps:
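Serum-purified human C1s (1.16 nM final) preincubated 5 min at room temperature with compound in 50 mM Tris, 1 M NaCl, pH 7.5. Z-L-Lys-SBzl and DTNB added at 100 μM each; A405 followed every 30 s for 30 min, and IC50 obtained by nonlinear regression of reaction rates.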
As for `C[C@@H](NC(=O)[C@@H]1CC2(CC2)CN1C(=O)CNC(=O)c1ccc2c(c1)Oc1ccccc1S2)c1cc2cnccc2[nH]1` [Compound 190, (S)-N-((R)-1-(1H-pyrrolo[3,2-c]pyridin-2-yl)ethyl)-5-((phenoxathiine-3-carbonyl)glycyl)-5-azaspiro[2.4]heptane-6-carboxamide], the IC50 is less than 0.1 µM. Regarding `O=C(NCC(=O)N1CC2(C[C@H]1C(=O)NCc1cc3cnccc3[nH]1)OCCO2)c1ccc2c(c1)Sc1ccccc1O2` [Compound 24, (S)-N-((1H-pyrrolo[3,2-c]pyridin-2-yl)methyl)-7-((phenoxathiine-2-carbonyl)glycyl)-1,4-dioxa-7-azaspiro[4.4]nonane-8-carboxamide], the IC50 was less than 0.1 µM.

As for `O=C(NCC(=O)N1C[C@H](OC(F)F)C[C@H]1C(=O)NCc1ccn2ccnc2c1)c1ccc2c(c1)Oc1ccccc1S2` [Compound 237, (2S,4R)-4-(difluoromethoxy)-N-(imidazo[1,2-a]pyridin-7-ylmethyl)-1-((phenoxathiine-3-carbonyl)glycyl)pyrrolidine-2-carboxamide], the IC50 was more than 1 µM. With `O=C(NCC(=O)N1C[C@H](OC(F)F)C[C@H]1C(=O)NCc1cc2c(s1)CNCC2)c1ccc2c(c1)Oc1ccccc1S2` [Compound 210, (2S,4R)-4-(difluoromethoxy)-1-((phenoxathiine-3-carbonyl)glycyl)-N-((4,5,6,7-tetrahydrothieno[2,3-c]pyridin-2-yl)methyl)pyrrolidine-2-carboxamide] the figure was less than 0.1 µM. With `O=C(NCC(=O)N1C[C@H](OC(F)F)C[C@H]1C(=O)N[C@@H](CO)c1cc2cnccc2[nH]1)c1ccc2c(c1)-c1ccccc1C2(F)F` [Compound 128, (2S,4R)-1-((9,9-difluoro-9H-fluorene-3-carbonyl)glycyl)-4-(difluoromethoxy)-N-((R)-2-hydroxy-1-(1H-pyrrolo[3,2-c]pyridin-2-yl)ethyl) pyrrolidine-2-carboxamide], the IC50 was more than 1 µM. With `C[C@@]12C[C@@H]1N(C(=O)CNC(=O)CCCOc1ccccc1)[C@H](C(=O)N[C@@H]1CCN(C(=O)CCN)C1)C2` [Compound 60, (1S,3S,5S)-N-((R)-1-(3-aminopropanoyl)pyrrolidin-3-yl)-5-methyl-2-((4-phenoxybutanoyl)glycyl)-2-azabicyclo[3.1.0]hexane-3-carboxamide] the figure was more than 1 µM; with `O=C(NCC(=O)N1CC2(C[C@H]1C(=O)NCc1cc3cnccc3[nH]1)OCCO2)c1ccc2c(c1)-c1ccccc1C2(F)F` [Compound 2, (S)-N-((1H-pyrrolo[3,2-c]pyridin-2-yl)methyl)-7-((9,9-difluoro-9H-fluorene-3-carbonyl)glycyl)-1,4-dioxa-7-azaspiro[4.4]nonane-8-carboxamide], less than 0.1 µM. Then `C[C@@H](NC(=O)[C@@H]1C[C@@H](OC(F)F)CN1C(=O)CNC(=O)c1ccc(Oc2ccccc2)cc1)c1cc2cnccc2[nH]1` [Compound 39, (2S,4R)-N-((R)-1-(1H-pyrrolo[3,2-c]pyridin-2-yl)ethyl)-4-(difluoromethoxy)-1-((4-phenoxybenzoyl)glycyl)pyrrolidine-2-carboxamide], with less than 0.1 µM; and `CCc1ccc(Oc2cc(F)cc(C(=O)NCC(=O)N3[C@H]4C[C@@]4(C)C[C@H]3C(=O)NCc3cc4cnccc4[nH]3)c2)cc1` [Compound 371, (1S,3S,5S)-N-((1H-pyrrolo[3,2-c]pyridin-2-yl)methyl)-2-((3-(4-ethylphenoxy)-5-fluorobenzoyl)glycyl)-5-methyl-2-azabicyclo[3.1.0]hexane-3-carboxamide], with less than 0.1 µM; and `C[C@@H](NC(=O)[C@@H]1C[C@@H](OC(F)F)CN1C(=O)CNC(=O)c1cnc2c(c1)Oc1ccccc1S2)c1cc2cnccc2[nH]1` [Compound 283, N-[2-[(2S,4R)-4-(difluoromethoxy)-2-[[(1R)-1-(1H-pyrrolo[3,2-c]pyridin-2-yl)ethyl]carbamoyl]pyrrolidin-1-yl]-2-oxo-ethyl]-[1,4]benzoxathiino[3,2-b]pyridine-3-carboxamide], with less than 0.1 µM. For `C[C@@]12C[C@@H]1N(C(=O)CNC(=O)c1ccc(Oc3ccccc3)cn1)[C@H](C(=O)NCc1cc3cnccc3[nH]1)C2` [Compound 136, (1S,3S,5S)-N-((1H-pyrrolo[3,2-c]pyridin-2-yl)methyl)-5-methyl-2-((5-phenoxypicolinoyl)glycyl)-2-azabicyclo[3.1.0]hexane-3-carboxamide], the half-maximal inhibitory concentration (IC50) fell in the range of 0.1 to 1 µM. With `O=C(NCC(=O)N1C[C@H](OC(F)F)C[C@H]1C(=O)NCc1ccc2cn[nH]c2c1)c1ccc2c(c1)Oc1ccccc1S2` [Compound 199, (2S,4R)-N-((1H-indazol-6-yl)methyl)-4-(difluoromethoxy)-1-((phenoxathiine-3-carbonyl)glycyl)pyrrolidine-2-carboxamide] the figure was more than 1 µM; with `COC[C@@]1(F)C[C@@H](C(=O)N[C@H](C)c2cc3cnccc3[nH]2)N(C(=O)CNC(=O)c2ccc(-c3ccccc3)cc2)C1` [Compound 83, (2S,4R)-N-((R)-1-(1H-pyrrolo[3,2-c]pyridin-2-yl)ethyl)-1-(([1,1′-biphenyl]-4-carbonyl)glycyl)-4-fluoro-4-(methoxymethyl)pyrrolidine-2-carboxamide], 0.1 to 1 µM. With `C[C@@]12C[C@@H]1N(C(=O)CN1Cc3cc(-c4ccc(F)cc4F)ccc3C1=O)[C@H](C(=O)NCc1cc3cnccc3[nH]1)C2` [Compound 129, (1S,3S,5S)-N-((1H-pyrrolo[3,2-c]pyridin-2-yl)methyl)-2-(2-(5-(2,4-difluorophenyl)-1-oxoisoindolin-2-yl)acetyl)-5-methyl-2-azabicyclo[3.1.0]hexane-3-carboxamide] the figure was less than 0.1 µM. With `O=C(NCC(=O)N1C[C@H](OC(F)F)C[C@H]1C(=O)N[C@H](CO)c1cc2cnccc2[nH]1)c1ccc(Oc2ccc(F)cc2)cc1` [Compound 98, (2S,4R)-4-(difluoromethoxy)-1-((4-(4-fluorophenoxy)benzoyl)glycyl)-N-((S)-2-hydroxy-1-(1H-pyrrolo[3,2-c]pyridin-2-yl)ethyl)pyrrolidine-2-carboxamide], the IC50 lay within 0.1 to 1 µM. Then `O=C(NCC(=O)N1C[C@H](OC(F)F)C[C@H]1C(=O)NCc1cc2cnccc2[nH]1)c1cccc(Oc2ccccc2)c1` [Compound 127, (2S,4R)-N-((1H-pyrrolo[3,2-c]pyridin-2-yl)methyl)-4-(difluoromethoxy)-1-((3-phenoxybenzoyl)glycyl)pyrrolidine-2-carboxamide], with less than 0.1 µM; and `Cc1ccc(-c2cnc(C(=O)NCC(=O)N3CC4(C[C@H]3C(=O)NCc3cc5cnccc5[nH]3)OCCO4)c(F)c2)cc1` [Compound 108, (S)-N-((1H-pyrrolo[3,2-c]pyridin-2-yl)methyl)-7-((3-fluoro-5-(p-tolyl)picolinoyl)glycyl)-1,4-dioxa-7-azaspiro[4.4]nonane-8-carboxamide], with 0.1 to 1 µM. Then `C[C@@H](NC(=O)[C@@H]1CC2(CN1C(=O)CN1Cc3cc(-c4ccc(F)cc4)ccc3C1=O)OCCO2)c1cc2cnccc2[nH]1` [Compound 123, (S)-N-((R)-1-(1H-pyrrolo[3,2-c]pyridin-2-yl)ethyl)-7-(2-(5-(4-fluorophenyl)-1-oxoisoindolin-2-yl)acetyl)-1,4-dioxa-7-azaspiro[4.4]nonane-8-carboxamide], with 0.1 to 1 µM. Then `C[C@@H](NC(=O)[C@@H]1C[C@](F)(CF)CN1C(=O)CNC(=O)c1ccc(Oc2ccc(F)cc2)cc1)c1cc2cnccc2[nH]1` [Compound 89, (2S,4R)-N-((R)-1-(1H-pyrrolo[3,2-c]pyridin-2-yl)ethyl)-4-fluoro-4-(fluoromethyl)-1-((4-(4-fluorophenoxy)benzoyl)glycyl)pyrrolidine-2-carboxamide], with more than 1 µM. Turning to `Cc1cc(F)ccc1Oc1ccc(C(=O)NCC(=O)N2C[C@H](OC(F)F)C[C@H]2C(=O)NCc2cc3cnccc3[nH]2)cc1` [Compound 308, (2S,4R)-N-((1H-pyrrolo[3,2-c]pyridin-2-yl)methyl)-4-(difluoromethoxy)-1-((4-(4-fluoro-2-methylphenoxy)benzoyl)glycyl)pyrrolidine-2-carboxamide], the IC50 is less than 0.1 µM. Then `O=C(NCC(=O)N1C[C@H](OC(F)F)C[C@H]1C(=O)NCc1cc2cnccc2[nH]1)c1ccc(OC2CCCCC2)cc1` [Compound 383, (2S,4R)-N-((1H-pyrrolo[3,2-c]pyridin-2-yl)methyl)-1-((4-(cyclohexyloxy)benzoyl)glycyl)-4-(difluoromethoxy)pyrrolidine-2-carboxamide], with less than 0.1 µM. For the molecule `CS(=O)(=O)[C@@H]1C[C@@H](C(=O)N[C@H](CO)c2cc3cnccc3[nH]2)N(C(=O)CNC(=O)c2ccc3c(c2)Oc2ccccc2S3)C1` [Compound 99, (2S,4R)-N-((S)-2-hydroxy-1-(1H-pyrrolo[3,2-c]pyridin-2-yl)ethyl)-4-(methylsulfonyl)-1-((phenoxathiine-3-carbonyl)glycyl) pyrrolidine-2-carboxamide], the half-maximal inhibitory concentration (IC50) is less than 0.1 µM.
